Reference: US20020137929A1, “1 - (3-heterocyclylphenyl) isothiourea, -isourea, -guanidine and -amidine herbicidal agents” (Intellectual Property Department, BASF Aktiengesellschaft, priority 1998, published 2002)

How the values were obtained:
CYPSE (Flatsedge) = experiment: Preemergence weed control under flooded paddy conditions; assay type: in vivo, Cyperus serotinus; settings: rated 3-4 weeks after treatment
In short: (§1)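 Using flooded silt loam (water 1.5 to 3 cm deep), seeds sown in the top 0.5 cm were exposed preemergence to compound pipetted into the flood at about 0.0313 to 0.500 kg/ha. Effects were scored 0-9 by eye three to four weeks later.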

[1] = test system: GLXMAW (Soybean, Williams); experiment: Postemergence herbicidal evaluation; assay type: in vivo, Glycine max, (L.) Merr. cv Williams
In short: (§2)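 Scores (0–9) reflect plant stand, vigor, malformation, size, chlorosis and general appearance relative to control, read 4 to 5 weeks after treatment and averaged where tests were repeated. Application: about 0.0156–0.500 kg/ha sprayed at 40 psi onto two-week seedlings.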

CASOB (Sicklepod) = experiment: Postemergence herbicidal evaluation; assay type: in vivo, Cassia obtusifolia
In short: as §2

ORYSAT (Rice, Tebonnet) = experiment: Preemergence herbicidal evaluation; assay type: in vivo, Oryza sativa, (L.) Tebonnet; settings: rated 4-5 weeks after treatment
In short: (§3)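 Scores use a 0–9 visual scale covering stand, vigor, malformation, size and chlorosis relative to controls, rated four to five weeks after treatment. Before emergence, soil-planted seeds were sprayed with compound in aqueous acetone at roughly 0.0156–0.500 kg/ha and held in the greenhouse.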

[2] = test system: SAGPY (Arrowhead (Pygmaea)); experiment: Preemergence weed control under flooded paddy conditions; assay type: in vivo, Sagittaria pygmaea; settings: rated 3-4 weeks after treatment
In short: as §1

[3] = test system: ECHORC (Watergrass (Calif.)); experiment: as above; assay type: in vivo, Echinochloa oryzoides; settings: rated 3-4 weeks after treatment
In short: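 First, seeds or propagules go into the top 0.5 cm of silt loam; next, water is held 1.5 to 3 cm over the soil; then compound (50/50 acetone/water) is pipetted into it at about 0.0313 to 0.500 kg/ha; finally plants are rated visually 0-9 after three to four weeks.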

[4] = test system: SAGPY (Arrowhead (Pygmaea)); experiment: Postemergence weed control under flooded paddy conditions; assay type: in vivo, Sagittaria pygmaea; settings: postemergence weeds, 3-4 weeks after treatment
In short: (§4)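 Injury ratings (0–9 scale covering stand, vigor, malformation, size, chlorosis and overall appearance versus control) were made three to four weeks after treatment. Test material, about 0.0313 to 0.500 kg/ha a.i. in 50/50 v/v aqueous/acetone, was added to flood water 1.5 to 3 cm deep over 3 to 5 cm weeds and 1.5 to 2.5 leaf rice.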

[5] = test system: ECHORC (Watergrass (Calif.)); experiment: as above; assay type: in vivo, Echinochloa oryzoides; settings: postemergence weeds, 3-4 weeks after treatment
In short: as §4

GALAP (Galium) [6] = experiment: Postemergence herbicidal evaluation; assay type: in vivo, Galium aparine
In short: as §2

[7] = test system: TRZAWR (Wheat, Winter, cv Riband); experiment: Postemergence herbicidal evaluation; assay type: in vivo, Triticum aestivum
In short: as §2

AMBEL (Ragweed, Common) = experiment: Postemergence herbicidal evaluation; assay type: in vivo, Ambrosia artemisifolia
In short: as §2

GALAP (Galium) [8] = experiment: Preemergence herbicidal evaluation; assay type: in vivo, Galium aparine; settings: rated 4-5 weeks after treatment
In short: as §3

SETVI (Foxtail, Green) = experiment: Preemergence herbicidal evaluation; assay type: in vivo, Setaria viridis; settings: rated 4-5 weeks after treatment
In short: as §3

MOOVA (Monochoria) = experiment: Preemergence weed control under flooded paddy conditions; assay type: in vivo, Monochoria vaginalis; settings: rated 3-4 weeks after treatment
In short: as §1

CCOC(=O)CN1C(=O)C(CC(=O)OCc2ccccc2)OC1=Nc1cc(-n2c(=O)cc(C(F)(F)F)n(C)c2=O)c(F)cc1Cl (stereo not drawn) [Compound 40, 2-{{2-Chloro-5-[3,6-dihydro-3-methyl-2,6-dioxo-4-(trifluoromethyl)-1(2H)-pyrimidinyl]-4-fluorophenyl}imino}-4-oxo-3,5-oxazolidinediacetic acid, 5-benzyl ethyl ester]
Herbicidal rating CYPSE (CYPSE (Flatsedge); 0.0313 kg/ha): 0.0
Herbicidal rating CYPSE (CYPSE (Flatsedge); 0.0625 kg/ha): 0.0
Herbicidal rating CYPSE (CYPSE (Flatsedge); 0.1250 kg/ha): 0.0
Herbicidal rating CYPSE (CYPSE (Flatsedge); 0.2500 kg/ha): 6.0
Postemergence herbicidal rating GLXMAW ([1]; Rate 0.0158 kg/ha): 7.0
Postemergence herbicidal rating GLXMAW ([1]; Rate 0.0315 kg/ha): 9.0
Postemergence herbicidal rating GLXMAW ([1]; Rate 0.0630 kg/ha): 8.0
Postemergence herbicidal rating CASOB (CASOB (Sicklepod); Rate 0.0158 kg/ha): 0.0
Postemergence herbicidal rating CASOB (CASOB (Sicklepod); Rate 0.0315 kg/ha): 2.0
Postemergence herbicidal rating CASOB (CASOB (Sicklepod); Rate 0.0630 kg/ha): 5.0
Preemergence herbicidal rating ORYSAT (ORYSAT (Rice, Tebonnet); rate 0.0313 kg/ha): 0.0
Preemergence herbicidal rating ORYSAT (ORYSAT (Rice, Tebonnet); rate 0.0625 kg/ha): 0.0
Preemergence herbicidal rating ORYSAT (ORYSAT (Rice, Tebonnet); rate 0.1250 kg/ha): 0.0
Preemergence herbicidal rating ORYSAT (ORYSAT (Rice, Tebonnet); rate 0.2500 kg/ha): 1.0
Herbicidal rating SAGPY ([2]; 0.0313 kg/ha): 0.0
Herbicidal rating SAGPY ([2]; 0.0625 kg/ha): 0.0
Herbicidal rating SAGPY ([2]; 0.1250 kg/ha): 0.0
Herbicidal rating SAGPY ([2]; 0.2500 kg/ha): 0.0
Herbicidal rating ECHORC ([3]; 0.0313 kg/ha): 5.0
Herbicidal rating ECHORC ([3]; 0.0625 kg/ha): 5.0
Herbicidal rating ECHORC ([3]; 0.1250 kg/ha): 5.0
Herbicidal rating ECHORC ([3]; 0.2500 kg/ha): 9.0
Herbicidal rating SAGPY ([4]; rate 0.0313 kg/ha): 0.0
Herbicidal rating SAGPY ([4]; rate 0.0625 kg/ha): 0.0
Herbicidal rating SAGPY ([4]; rate 0.1250 kg/ha): 0.0
Herbicidal rating SAGPY ([4]; rate 0.2500 kg/ha): 0.0
Herbicidal rating ECHORC ([5]; rate 0.0313 kg/ha): 5.0
Herbicidal rating ECHORC ([5]; rate 0.0625 kg/ha): 5.0
Herbicidal rating ECHORC ([5]; rate 0.1250 kg/ha): 5.0
Herbicidal rating ECHORC ([5]; rate 0.2500 kg/ha): 9.0
Postemergence herbicidal rating GALAP (GALAP (Galium) [6]; Rate 0.0158 kg/ha): 1.0
Postemergence herbicidal rating GALAP (GALAP (Galium) [6]; Rate 0.0315 kg/ha): 2.0
Postemergence herbicidal rating GALAP (GALAP (Galium) [6]; Rate 0.0630 kg/ha): 4.0
Postemergence herbicidal rating TRZAWR ([7]; Rate 0.0158 kg/ha): 4.0
Postemergence herbicidal rating TRZAWR ([7]; Rate 0.0315 kg/ha): 4.0
Postemergence herbicidal rating TRZAWR ([7]; Rate 0.0630 kg/ha): 4.5
Postemergence herbicidal rating AMBEL (AMBEL (Ragweed, Common); Rate 0.0158 kg/ha): 9.0
Postemergence herbicidal rating AMBEL (AMBEL (Ragweed, Common); Rate 0.0315 kg/ha): 9.0
Postemergence herbicidal rating AMBEL (AMBEL (Ragweed, Common); Rate 0.0630 kg/ha): 9.0
Preemergence herbicidal rating GALAP (GALAP (Galium) [8]; rate 0.0313 kg/ha): 0.0
Preemergence herbicidal rating GALAP (GALAP (Galium) [8]; rate 0.0625 kg/ha): 0.0
Preemergence herbicidal rating GALAP (GALAP (Galium) [8]; rate 0.1250 kg/ha): 0.0
Preemergence herbicidal rating GALAP (GALAP (Galium) [8]; rate 0.2500 kg/ha): 0.0
Preemergence herbicidal rating SETVI (SETVI (Foxtail, Green); rate 0.0313 kg/ha): 0.0
Preemergence herbicidal rating SETVI (SETVI (Foxtail, Green); rate 0.0625 kg/ha): 0.0
Preemergence herbicidal rating SETVI (SETVI (Foxtail, Green); rate 0.1250 kg/ha): 6.0
Preemergence herbicidal rating SETVI (SETVI (Foxtail, Green); rate 0.2500 kg/ha): 6.0
Herbicidal rating MOOVA (MOOVA (Monochoria); 0.0313 kg/ha): 9.0
Herbicidal rating MOOVA (MOOVA (Monochoria); 0.0625 kg/ha): 9.0
Herbicidal rating MOOVA (MOOVA (Monochoria); 0.1250 kg/ha): 9.0
Herbicidal rating MOOVA (MOOVA (Monochoria); 0.2500 kg/ha): 9.0
